We go through 1 substance from US9579358B2, “Compositions for binding to amyloid proteins” (LANCASTER UNIVERSITY BUSINESS ENTERPRISES LIMITED, priority 2011, dated 2017).

One experiment addresses T1, Aβ42 (Homo sapiens, UniProt P05067).
T1 construct: Recombinant Aβ42, Ultrapure, was purchased from rPeptide, Bogart, Ga., USA; purchased rPeptide, Bogart, Ga., USA
The experiment can be described thus: Thioflavin T (ThT) assay for Aβ fibrils. Type of experiment: biochemical. To be noted: Table 3, 1:2 molar ratio to Aβ. Here is the method:
This method was the same as that published previously. Briefly, 60 μl samples of solutions containing Aβ42 (25 μM), ThT (15 μM) and between 0 and 125 μM RI-OR2 or RI-OR2-TAT, in 10 mM phosphate buffered saline (PBS), pH 7.4, were incubated in sealed, black, clear-bottomed 384-well plates (Corning). ThT fluorescence was monitored every 10 mins (λex=442 nm, λem=483 nm) for 48 h at 30° C. in a Biotek Synergy 2 plate reader.

For experiment [1], the target named is immobilized Aβ1-42 monomers and fibrils (Homo sapiens, UniProt P05067). To be noted: cited from earlier work.
immobilized Aβ1-42 monomers and fibrils, sequence (P05067 672-713 limits assumed): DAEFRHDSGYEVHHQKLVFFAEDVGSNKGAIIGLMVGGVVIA

The term pKd denotes −log10 of the Kd, conventionally taken in molar units.

pKd: −log10 of the molar value. Like-named read-outs stand apart in the source and are kept apart here.

T1 sequence (P05067 672-713 limits assumed): as above

Turning to “Ac-rGffvlkGr-NH2 [RI-OR2, reference compound]”, the “% of control” value at Aβ42 (48 hrs, Aβ alone = 100) is 35%. The “RFU at 48 hours” value on Aβ42 (Aβ 25 μM) is 72265 RFU. In addition, the pKd in experiment [1] (previously reported value, read-out: Kd, binding to Aβ42 fibrils) is 5.02; in experiment [1] (published SPR data (28), read-out: binding affinity (Kd) for interaction with Aβ monomers and fibrils) it was 4.52 to 4.60.
